Experimental data reported in US20120121540A1 (priority 2007, published 2012).

Assay: HCV replicon assay (luciferase reporter, ET cell line)
Format: cell-based
Conditions: Hepatitis C virus, HCV replicon luciferase activity in ET cells
Procedure, shortened: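 EC50 and, via WST-1 cytotoxicity, TC50 were fitted with a Hill-coefficient equation to % inhibition across 10 two-fold dilutions. Compounds at 0.1 nM-[…] with 0.5% DMSO were applied 24 h post-seeding to replicon-bearing ET cells (luc-ubi-neo/NS3-5B, adaptive mutations). Firefly luciferase signal was measured after 48-72 h.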
`O=C(c1nc2c(C(F)(F)F)cc(-c3cn[nH]c3)cn2c1Br)N1CC=C(c2ccoc2)C1` [Compound 436, [3-Bromo-6-(1H-pyrazol-4-yl)-8-trifluoromethyl-imidazo[1,2-a]pyridin-2-yl]-(3-furan-3-yl-2,5-dihydro-pyrrol-1-yl)-methanone] gave an inhibition at 10 µM of 98%. Compound `O=C(NCc1cccs1)c1cc2cc(-c3ccccc3)cc(I)n2n1` [Compound 102, 7-Iodo-5-phenyl-pyrazolo[1,5-a]pyridine-2-carboxylic Acid (thiophen-2-ylmethyl)-amide] has an inhibition at 10 µM of 81%. For `Nc1cccc(C2CCN(C(=O)c3nc4c(C(F)(F)F)cc(-c5ccoc5)cn4c3Cl)C2)c1` (stereo not shown) [Compound 462, [3-(3-Amino-phenyl)-pyrrolidin-1-yl]-(3-chloro-6-furan-3-yl-8-trifluoromethyl-imidaz [1,2-a]pyridin-2-yl)-methanone], the inhibition at 10 µM was 86.5%. `O=C(NCc1cccc(F)c1)NCc1cn2cc(-c3ccoc3)cc(C(F)(F)F)c2n1` [Compound 398, 1-(3-Fluoro-benzyl)-3-(6-furan-3-yl-8-trifluoromethyl-imidazo[1,2-a]pyridine-2-ylmethyl)-urea] showed an inhibition at 10 µM of 86.9%. In the case of `Cc1cc(-c2ccccc2)cc2cc(C(=O)NCc3cccs3)nn12` [Compound 114, 7-Methyl-5-phenyl-pyrazolo[1,5-a]pyridine-2-carboxylic acid (thiophen-2-ylmethyl)-amide], the inhibition at 10 µM is reported as 37.9%. `O=C(c1nc2c(C(F)(F)F)cc(-c3cn[nH]c3)cn2c1Cl)N1CC=C(c2cscn2)C1` [Compound 445, [3-Chloro-6-(1H-pyrazol-4-yl)-8-(trifluoromethyl)imidazol[1,2-a]pyridine-2-yl][3-(1,3-thiazol-4-yl)-2,5-dihydro-1H-pyrrol-1-yl]methanone] gave an inhibition at 10 µM of 93.9%. For `O=C(c1cn2cc(-c3cn[nH]c3)cc(C(F)(F)F)c2n1)N1CCC(c2cccc(F)c2)C1` (stereo not shown) [Compound 378, [3-(3-Fluoro-phenyl)-pyrrolidin-1-yl]-[6-(1H-pyrazol-4-yl)-8-trifluoromethyl-imidazo[1,2-a]pyridin-2-yl]-methanone], the inhibition at 10 µM was 86.4%. For `O=C(c1nc2c(C(F)(F)F)cc(-c3cn[nH]c3)cn2c1Cl)N1CC=C(c2ncccc2F)C1` [Compound 592], the inhibition at 10 µM was 97.1%. Work on `O=C(c1nc2c(C(F)(F)F)cc(-c3ccco3)cn2c1Cl)N1CCCC(c2ccccc2)C1` (stereo not shown) [Compound 216, (3-Chloro-6-furan-2-yl-8-trifluoromethyl-imidazo[1,2-a]pyridin-2-yl)-(3-phenyl-piperidin-1-yl)-methanone] yielded an inhibition at 10 µM of 60.3%. `O=C(NC1CN(S(=O)(=O)c2ccccc2)C1)c1nc2c(C(F)(F)F)cc(-c3ccoc3)cn2c1Cl` [Compound 511, 3-Chloro-6-furan-3-yl-8-trifluoromethyl-imidazo[1,2-a]pyridine-2-carboxylic Acid (1-benzenesulfonyl-azetidin-3-yl)-amide] gave an inhibition at 10 µM of 98.6%. Compound `COc1ccccc1C1CCN(C(=O)c2nc3c(C(F)(F)F)cc(-c4ccoc4)cn3c2Cl)CC1` [Compound 550, (3-Chloro-6-furan-3-yl-8-trifluoromethyl-imidazo[1,2-a]pyridin-2-yl)-[4-(2-methoxy-phenyl)-piperidin-1-yl)-methanone] has an inhibition at 10 µM of 64.8%. `Cc1nc(C)c(-c2cc(C(F)(F)F)c3nc(C(=O)NCc4cccs4)c(Cl)n3c2)s1` [Compound 289, 3-Chloro-6-(2,4-dimethyl-thiazol-5-yl)-8-trifluoromethyl-imidazo[1,2-a]pyridine-2-carboxylic Acid (thiophen-2-ylmethyl)-amide] gave an inhibition at 10 µM of 30.3%. Work on `O=C(NCc1cccs1)c1nc2c(Br)cc(-c3ccccc3)cn2c1Cl` [Compound 371, 8-Bromo-3-chloro-6-phenyl-imidazo[1,2-a]pyridine-2-carboxylic Acid (thiophen-2-ylmethyl)-amide] yielded an inhibition at 10 µM of 78.6%. Compound `O=C(NCc1cccs1)c1[nH]c2c(C(F)(F)F)cc(-c3ccccc3)cc2c1Cl` [Compound 104, 3-Chloro-5-phenyl-7-trifluoromethyl-1H-indole-2-carboxylic Acid (thiophen-2-ylmethyl)-amide] has an inhibition at 10 µM of 44%. `C=C(C)c1cc(-c2ccccc2)cn2c(Cl)c(C(=O)NCc3cccs3)nc12` [Compound 358, 3-Chloro-8-isopropenyl-6-phenyl-imidazo [1,2-a]pyridine-2-carboxylic Acid (thiophen-2-ylmethyl)-amide] showed an inhibition at 10 µM of 77.3%. With `O=C(NCc1cccs1)c1nc2c(-c3ccoc3)cc(-c3ccccc3)cn2c1Cl` [Compound 263] the inhibition at 10 µM was 60.3%. `O=C(c1nc2c(C(F)(F)F)cc(-c3cn[nH]c3)cn2c1Cl)N1CC=C(c2nccs2)C1` [Compound 439, [3-Chloro-6-(1H-pyrazol-4-yl)-8-trifluoromethyl-imidazo[1,2-a]pyridin-2-yl]-(3-thiazol-2-yl-2,5-dihydro-pyrrol-1-yl)-methanone] gave an inhibition at 10 µM of 99.2%. Work on `O=C(c1nc2c(C(F)(F)F)cc(-c3ccoc3)cn2c1Cl)N1CCN(c2ccccc2F)CC1` [Compound 529, (3-Chloro-6-furan-3-yl-8-trifluoromethyl-imidazo[1,2-a]pyridine-2-yl)-[4-(2-fluoro-phenyl)-piperazin-1-yl]-methanone] yielded an inhibition at 10 µM of 78.9%. Compound `O=C(c1nc2c(C(F)(F)F)cc(-c3cccc(F)c3)cn2c1Br)N1CCC(c2ccccc2)C1` (stereo not shown) [Compound 368, [3-Bromo-6-(3-fluoro-phenyl)-8-trifluoromethyl-imidazo[1,2-a]pyridin-2-yl]-(3-phenyl-pyrrolidin-1-yl)-methanone] has an inhibition at 10 µM of 92.2%. For `O=C(Cc1cccs1)NCc1cn2cc(-c3ccoc3)cc(C(F)(F)F)c2n1` [Compound 388, N-(6-Furan-3-yl-8-trifluoromethyl-imidazo[1,2-a]pyridin-2-ylmethyl)-2-thiophen-2-yl-acetamide], the inhibition at 10 µM was 97.2%. For `O=C(NCc1ccoc1)c1nc2c(C(F)(F)F)cc(-c3ccco3)cn2c1Cl` [Compound 159, 3-Chloro-6-furan-2-yl-8-trifluoromethyl-imidazo[1,2-a]pyridine-2-carboxylic acid (furan-3-ylmethyl)-amide], the inhibition at 10 µM was 94.8%. Work on `O=C(NCCc1ccccc1)c1nc2c(C(F)(F)F)cc(-c3ccco3)cn2c1Cl` [Compound 321, 3-Chloro-6-furan-2-yl-8-trifluoromethyl-imidazo[1,2-a]pyridine-2-carboxylic Acid phenethyl-amide] yielded an inhibition at 10 µM of 78.2%. In the case of `O=C(c1nc2c(C(F)(F)F)cc(-c3ccco3)cn2c1Cl)N1CC(Cc2ccccc2)C1` [Compound 328, (3-Benzyl-azetidin-1-yl)-(3-chloro-6-furan-2-yl-8-trifluoromethyl-imidazo[1,2-a]pyridin-2-yl)-methanone], the inhibition at 10 µM is reported as 72.5%. With `O=C(c1cn2cc(-c3cn[nH]c3)cc(C(F)(F)F)c2n1)N1CC=C(c2nccs2)C1` [Compound 440, [6-(1H-Pyrazol-4-yl)-8-trifluoromethyl-imidazo[1,2-a]pyridin-2-yl]-(3-thiazol-2-yl-2,5-dihydro-pyrrol-1-yl)-methanone] the inhibition at 10 µM was 98.9%. For `O=C(Nc1nc2c(C(F)(F)F)cc(-c3ccoc3)cn2c1Cl)c1cccs1` [Compound 356, Thiophene-2-carboxylic acid (3-chloro-6-furan-3-yl-8-trifluoromethyl-imidazo[1,2-a]pyridin-2-yl)-amide], the inhibition at 10 µM was 32.5%. `O=C(NCc1cccs1)c1nn2c(Br)cc(-c3ccccc3)cc2c1Br` [Compound 113, 3,7-dibromo-5-phenyl-pyrazolo[1,5-a]pyridine-2-carboxylic Acid (thiophen-2-ylmethyl)-amide] gave an inhibition at 10 µM of 77.3%. For `O=C(NCc1cccs1)c1cc2cc(-c3ccco3)cc(Cl)n2n1` [Compound 145, 7-Chloro-5-furan-2-yl-pyrazolo[1,5-a]pyridine-2-carboxylic Acid (thiophen-2-ylmethyl)-amide], the inhibition at 10 µM was 49.8%. Work on `O=C(c1nc2c(C(F)(F)F)cc(-c3cn[nH]c3)cn2c1Br)N1CCN(c2nccs2)CC1` [Compound 610, [3-Bromo-6-(1H-pyrazol-4-yl)-8-trifluoromethyl-imidazo[1,2-a]pyridin-2-yl]-(4-thiazol-2-yl-piperazin-1-yl)-methanone] yielded an inhibition at 10 µM of 68.7%. With `Cc1noc(Cc2c(C(=O)N3CCC(c4ccc(F)cc4)C3)nc3c(C(F)(F)F)cc(-c4ccoc4)cn23)n1` (stereo not shown) [Compound 243, [3-(4-Fluoro-phenyl)-pyrrolidin-1-yl]-[6-furan-3-yl-3-(3-methyl-[1,2,4]oxadiazol-5-ylmethyl)-8-trifluoromethyl-imidazo[1,2-a]pyridin-2-yl]-methanone] the inhibition at 10 µM was 86.2%. Work on `O=S(=O)(Cc1ccccc1)NCc1cn2cc(-c3ccoc3)cc(C(F)(F)F)c2n1` [Compound 396] yielded an inhibition at 10 µM of 94.2%. For `CC(C)S(=O)(=O)NC1CN(C(=O)c2nc3c(C(F)(F)F)cc(-c4ccoc4)cn3c2Cl)C1` [Compound 497, Propane-2-sulfonic acid [1-(3-chloro-6-furan-3-yl-8-trifluoromethyl-imidazo[1,2-a]pyridine-2-carbonyl)-azetidin-3-yl]-amide], the inhibition at 10 µM was 97.8%. In the case of `O=C(NCCc1cccs1)c1cc2cc(-c3ccccc3)cc(I)n2n1` [Compound 125, 7-Iodo-5-phenyl-pyrazolo[1,5-a]pyridine-2-carboxylic Acid (2-thiophen-2-yl-ethyl)-amide], the inhibition at 10 µM is reported as 48%. For `CS(=O)(=O)NC1CN(C(=O)c2cn3cc(-c4ccoc4)cc(C(F)(F)F)c3n2)C1` [Compound 519, N-[1-(6-Furan-3-yl-8-trifluoromethyl-imidazazo[1,2-a]pyridine-2-carbonyl)-azetidin-3-yl]-methanesulfonamide], the inhibition at 10 µM was 84.7%. In the case of `O=C(c1nc2c(C(F)(F)F)cc(-c3ccoc3)cn2c1Cl)N1CCN(c2ncccn2)CC1` [Compound 597, (3-Chloro-6-furan-3-yl-8-trifluoromethyl-imidazo[1,2-a]pyridin-2-yl)-(4-pyrimidin-2-yl-piperazin-1-yl)-methanone], the inhibition at 10 µM is reported as 38.7%.
